Several values for one entry are separate records, joined by “and”; a condition that tells them apart may be missing. Equal values may be shown once.
Tests used:
[1] = system: Lepidotera versus Diptera; settings: selectivity between insect orders; cited from earlier work
[2] = biological target: HaLBD, recombinant LBD heterodimer of ecdysone receptor from Helicoverpa armigera; assay: equilibrium binding of [3H]ponasterone A to HaLBD; settings: Langmuir isotherm fit
Description: (§1) Data fitting using a computer algorithm (KalcidaGraph v3.09, Synergy Software) allowed us to obtain Kd values for each receptor-radioligand complex and to ascertain [LBD]tot. Comparison of the [LBD]tot value with the protein concentration of each purified sample indicated the proportion of the recombinant receptor LBD heterodimer molecules that was functional. Testing Fluorescent and Reference Ecdysteroids As Ligands Using a Radioligand-based Assay

[3] = biological target: BtLBD, recombinant LBD heterodimer of ecdysone receptor from Bemisia tabaci; assay: equilibrium binding of [3H]ponasterone A to BtLBD; settings: Langmuir isotherm fit
Description: as §1

[4] = biological target: LcLBD, recombinant LBD heterodimer of ecdysone receptor from Lucilia cuprina; assay: equilibrium binding of [3H]ponasterone A to LcLBD; settings: Langmuir isotherm fit
Description: as §1

[5] = biological target: MpLBD, recombinant LBD heterodimer of ecdysone receptor from Myzus persicae; assay: equilibrium binding of [3H]ponasterone A to MpLBD; settings: Langmuir isotherm fit
Description: as §1

LcLBD = assay: removal of bound [3H]ponasterone A from LcLBD by dialysis; type: binding, Lucilia cuprina; settings: dialysis at room temperature
Description: The same equilibrium binding experiments indicated the properties of functional receptor LBD heterodimer molecules in each preparation to be as follows: LcLBD, 21%; MpLBD, 16%; BtLBD, 8.4%. The value for HaLBD was not determined directly, but by indirect methods it was assigned a provisional value of 15%. The relatively low activity values agree with published observations for the full-length Drosophila melanogaster receptor, for which Sage et al. (1986) remark that ‘. . . the binding activity of unloaded receptor is inherently labile when subjected to standard protein purification techniques. Therefore, the ecdysteroid receptor needs to remain loaded with hormone during most manipulations’. While we agree that a much higher proportion of functional receptor protein can be obtained by conducting the purification in the presence of an ecdysteroid ligand (data not shown), the resulting receptor-ligand complex is not suitable for use in ligand-binding assays. Moreover, bound ecdysteroid ligands are slow to dissociate from the recombinant receptor LBDs. […] We therefore routinely purified the recombinant receptor LBD heterodimers in the absence of any ligands, and corrected the concentration values of the purified LBD heterodimer preparations to account for the proportion of non-functional heterodimer that was present. […]

Chain of LcLBD (O18531 442-677 limits assumed): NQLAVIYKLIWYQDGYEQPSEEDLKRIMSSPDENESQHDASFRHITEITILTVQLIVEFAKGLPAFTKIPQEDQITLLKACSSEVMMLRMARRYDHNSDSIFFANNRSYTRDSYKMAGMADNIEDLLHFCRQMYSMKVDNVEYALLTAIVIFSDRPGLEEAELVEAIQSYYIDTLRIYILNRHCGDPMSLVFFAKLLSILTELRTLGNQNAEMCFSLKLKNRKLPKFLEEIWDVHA
Chain of LcLBD, recombinant LBD heterodimer of ecdysone receptor from Lucilia cuprina (O18531 442-677 limits assumed, one chain of several): as the sequence (O18531 442-677 limits assumed) above

Compound | effectiveness against Lepidotera relative to Diptera [1] | Kd [2] [nM] | Kd [3] | Kd [4] [nM] | Kd [5] | half-life of the radioligand-receptor complex (LcLBD)
CCc1ccc(C(=O)NN(C(=O)c2cc(C)cc(C)c2)C(C)(C)C)cc1 [RH-5992] | two to three orders of magnitude more effective | – | – | – | – | –
[24,25,26,27-^3H(N)]ponasterone A [[^3H]ponasterone A] | – | 2.53 ± 0.12 | 1.21 nM and 1.2 nM | 1 ± 0.1 | 0.7 nM and 0.72 nM and ~0.7 nM | about 10 h
